Reference: the NIST ThermoML archive (doi:10.1021/je700746a)
Numbers after ± are expanded uncertainties.

Details: 298.15 K; 101.33 kPa; Liquid

`CC(=O)CC(C)C` [4-methylpentan-2-one] showed a viscosity of 0.56 ± 0.04 mPa·s.
